Experimental data as given in patent US20230085307A1, “PYRIDAZINONE COMPOUND AND HERBICIDE” (NISSAN CHEMICAL CORPORATION, priority 2019, published 2023).

Legend:
barnyard grass [1] = assay: Test Example 5: herbicidal effect by foliage application, plastic box (Table 20, symbol H); assay type: in vivo, barnyard grass (Echinochloa crus-galli); settings: foliage application, 320 g/ha, three weeks after application
Method in brief: (§1)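 Plants were sown into sterilized diluvial soil under about 1.5 cm cover and kept in a greenhouse at 25° C. to 30° C. Fourteen days on, foliage received an even spray of the diluted emulsion. Herbicidal or crop effect was judged three weeks afterwards.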

redroot pigweed [2] = assay: Test Example 4: herbicidal effect by soil treatment (Table 19, symbol N); assay type: in vivo, redroot pigweed (Amaranthus retroflexus); settings: amount of applied herbicide 320 g/ha
Method in brief: (§2)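 In this soil treatment, the formulated compound reached the seeds only through the soil: seeds were buried about 1.5 cm deep in sterilized diluvial soil, then the diluted emulsion was sprayed over the surface. After three weeks at 25° C. to 30° C. in a greenhouse, effects were graded on criteria from an earlier test.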

windgrass [3] = assay: Test Example 5: herbicidal effect by foliage application, plastic box (Table 20, symbol L); assay type: in vivo, windgrass (Apera spica-venti); settings: foliage application, 320 g/ha, three weeks after application
Method in brief: as §1

barnyard grass [4] = assay: Test Example 4: herbicidal effect by soil treatment (Table 19, symbol H); assay type: in vivo, barnyard grass (Echinochloa crus-galli); settings: amount of applied herbicide 320 g/ha
Method in brief: as §2

persian speedwell [5] = assay: Test Example 4: herbicidal effect by soil treatment (Table 19, symbol R); assay type: in vivo, Persian speedwell (Veronica persica); settings: amount of applied herbicide 320 g/ha
Method in brief: as §2

velvetleaf [6] = assay: Test Example 4: herbicidal effect by soil treatment (Table 19, symbol M); assay type: in vivo, velvetleaf (Abutilon theophrasti); settings: amount of applied herbicide 320 g/ha
Method in brief: as §2

chickweed [7] = assay: Test Example 5: herbicidal effect by foliage application, plastic box (Table 20, symbol P); assay type: in vivo, common chickweed (Stellaria media); settings: foliage application, 320 g/ha, three weeks after application
Method in brief: as §1

windgrass [8] = assay: Test Example 4: herbicidal effect by soil treatment (Table 19, symbol L); assay type: in vivo, windgrass (Apera spica-venti); settings: amount of applied herbicide 320 g/ha
Method in brief: as §2

lambsquarters [9] = assay: Test Example 4: herbicidal effect by soil treatment (Table 19, symbol O); assay type: in vivo, lambsquarters (Chenopodium album); settings: amount of applied herbicide 320 g/ha
Method in brief: as §2

green foxtail [10] = assay: Test Example 4: herbicidal effect by soil treatment (Table 19, symbol G); assay type: in vivo, green foxtail (Setaria viridis); settings: amount of applied herbicide 320 g/ha
Method in brief: as §2

southern crabgrass [11] = assay: Test Example 4: herbicidal effect by soil treatment (Table 19, symbol F); assay type: in vivo, southern crabgrass (Digitaria ciliaris); settings: amount of applied herbicide 320 g/ha
Method in brief: as §2

southern crabgrass [12] = assay: Test Example 5: herbicidal effect by foliage application, plastic box (Table 20, symbol F); assay type: in vivo, southern crabgrass (Digitaria ciliaris); settings: foliage application, 320 g/ha, three weeks after application
Method in brief: as §1

rice flat sedge = assay: Test Example 3: herbicidal effect by foliage application, Wagner pot (Table 18, symbol E); assay type: in vivo, rice flat sedge (Cyperus iria)
Method in brief: (§3)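 Plants were sown in alluvial soil held under 0.1–0.5 cm standing water and grown 14 days in a greenhouse at 25–30 °C. An emulsifiable formulation, water-diluted to the set dose, was then sprayed onto the foliage, and effects were scored three weeks later using previously defined criteria.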

false cleavers [13] = assay: Test Example 4: herbicidal effect by soil treatment (Table 19, symbol Q); assay type: in vivo, false cleavers (Galium spurium); settings: amount of applied herbicide 320 g/ha
Method in brief: as §2

chickweed [14] = assay: Test Example 4: herbicidal effect by soil treatment (Table 19, symbol P); assay type: in vivo, common chickweed (Stellaria media); settings: amount of applied herbicide 320 g/ha
Method in brief: as §2

Italian ryegrass [15] = assay: Test Example 4: herbicidal effect by soil treatment (Table 19, symbol K); assay type: in vivo, Italian ryegrass (Lolium multiflorum); settings: amount of applied herbicide 320 g/ha
Method in brief: as §2

Chinese sprangletop = assay: Test Example 3: herbicidal effect by foliage application, Wagner pot (Table 18, symbol D); assay type: in vivo, chinese sprangletop (Leptochloa chinensis)
Method in brief: as §3

barnyard grass [16] = assay: Test Example 3: herbicidal effect by foliage application, Wagner pot (Table 18, symbol H); assay type: in vivo, barnyard grass (Echinochloa crus-galli)
Method in brief: as §3

wild oat [17] = assay: Test Example 5: herbicidal effect by foliage application, plastic box (Table 20, symbol I); assay type: in vivo, wild oat (Avena fatua); settings: foliage application, 320 g/ha, three weeks after application
Method in brief: as §1

velvetleaf [18] = assay: Test Example 5: herbicidal effect by foliage application, plastic box (Table 20, symbol M); assay type: in vivo, velvetleaf (Abutilon theophrasti); settings: foliage application, 320 g/ha, three weeks after application
Method in brief: as §1

persian speedwell [19] = assay: Test Example 5: herbicidal effect by foliage application, plastic box (Table 20, symbol R); assay type: in vivo, Persian speedwell (Veronica persica); settings: foliage application, 320 g/ha, three weeks after application
Method in brief: as §1

lambsquarters [20] = assay: Test Example 5: herbicidal effect by foliage application, plastic box (Table 20, symbol O); assay type: in vivo, lambsquarters (Chenopodium album); settings: foliage application, 320 g/ha, three weeks after application
Method in brief: as §1

blackgrass [21] = assay: Test Example 5: herbicidal effect by foliage application, plastic box (Table 20, symbol J); assay type: in vivo, blackgrass (Alopecurus myosuroides); settings: foliage application, 320 g/ha, three weeks after application
Method in brief: as §1

green foxtail [22] = assay: Test Example 5: herbicidal effect by foliage application, plastic box (Table 20, symbol G); assay type: in vivo, green foxtail (Setaria viridis); settings: foliage application, 320 g/ha, three weeks after application
Method in brief: as §1

false cleavers [23] = assay: Test Example 5: herbicidal effect by foliage application, plastic box (Table 20, symbol Q); assay type: in vivo, false cleavers (Galium spurium); settings: foliage application, 320 g/ha, three weeks after application
Method in brief: as §1

Italian ryegrass [24] = assay: Test Example 5: herbicidal effect by foliage application, plastic box (Table 20, symbol K); assay type: in vivo, Italian ryegrass (Lolium multiflorum); settings: foliage application, 320 g/ha, three weeks after application
Method in brief: as §1

blackgrass [25] = assay: Test Example 4: herbicidal effect by soil treatment (Table 19, symbol J); assay type: in vivo, blackgrass (Alopecurus myosuroides); settings: amount of applied herbicide 320 g/ha
Method in brief: as §2

wild oat [26] = assay: Test Example 4: herbicidal effect by soil treatment (Table 19, symbol I); assay type: in vivo, wild oat (Avena fatua); settings: amount of applied herbicide 320 g/ha
Method in brief: as §2

redroot pigweed [27] = assay: Test Example 5: herbicidal effect by foliage application, plastic box (Table 20, symbol N); assay type: in vivo, redroot pigweed (Amaranthus retroflexus); settings: foliage application, 320 g/ha, three weeks after application
Method in brief: as §1

[28] = amount of applied herbicide 320 g/ha

| SMILES | H: barnyard grass, herbicidal effect grade (barnyard grass [1]) | N: redroot pigweed, herbicidal effect grade (redroot pigweed [2]) | L: windgrass, herbicidal effect grade (windgrass [3]) | H: barnyard grass, herbicidal effect grade (barnyard grass [4]) | R: persian speedwell, herbicidal effect grade (persian speedwell [5]) | M: velvetleaf, herbicidal effect grade (velvetleaf [6]) | P: chickweed, herbicidal effect grade (chickweed [7]) | L: windgrass, herbicidal effect grade (windgrass [8]) | O: lambsquarters, herbicidal effect grade (lambsquarters [9]) | G: green foxtail, herbicidal effect grade (green foxtail [10]) | F: southern crabgrass, herbicidal effect grade (southern crabgrass [11]) | F: southern crabgrass, herbicidal effect grade (southern crabgrass [12]) | Q: false cleavers, herbicidal effect grade (false cleavers [13]) | P: chickweed, herbicidal effect grade (chickweed [14]) | K: Italian ryegrass, herbicidal effect grade (Italian ryegrass [15]) | I: wild oat, herbicidal effect grade (wild oat [17]) | M: velvetleaf, herbicidal effect grade (velvetleaf [18]) | R: persian speedwell, herbicidal effect grade (persian speedwell [19]) | O: lambsquarters, herbicidal effect grade (lambsquarters [20]) | J: blackgrass, herbicidal effect grade (blackgrass [21]) | further results |
| --- | --- | --- | --- | --- | --- | --- | --- | --- | --- | --- | --- | --- | --- | --- | --- | --- | --- | --- | --- | --- | --- |
| CCCC(=O)Oc1c(C)nn(C)c(=O)c1-c1c(-c2ccc(F)cc2)sc2cc(Cl)ccc12 [3-032] | 4 (Herbicidal rate of 70% or more and less than 90%) | 4 (Herbicidal rate of 70% or more and less than 90%) | 5 (Herbicidal rate of 90% or more (almost completely withered)) | 0 (Herbicidal rate of 5% or less (almost no effect)) | 5 (Herbicidal rate of 90% or more (almost completely withered)) | 0 (Herbicidal rate of 5% or less (almost no effect)) | 5 (Herbicidal rate of 90% or more (almost completely withered)) | 3 (Herbicidal rate of 40% or more and less than 70%) | 4 (Herbicidal rate of 70% or more and less than 90%) | 0 (Herbicidal rate of 5% or less (almost no effect)) | 0 (Herbicidal rate of 5% or less (almost no effect)) | 4 (Herbicidal rate of 70% or more and less than 90%) | 3 (Herbicidal rate of 40% or more and less than 70%) | 4 (Herbicidal rate of 70% or more and less than 90%) | 0 (Herbicidal rate of 5% or less (almost no effect)) | 5 (Herbicidal rate of 90% or more (almost completely withered)) | 4 (Herbicidal rate of 70% or more and less than 90%) | 5 (Herbicidal rate of 90% or more (almost completely withered)) | 4 (Herbicidal rate of 70% or more and less than 90%) | 4 (Herbicidal rate of 70% or more and less than 90%) | herbicidal effect on E: rice flat sedge (rice flat sedge; [28]): 3 (Herbicidal rate of 40% or more and less than 70%); herbicidal effect on D: Chinese sprangletop (Chinese sprangletop; [28]): 3 (Herbicidal rate of 40% or more and less than 70%); herbicidal effect on H: barnyard grass (barnyard grass [16]; [28]): 5 (Herbicidal rate of 90% or more (almost completely withered)); G: green foxtail, herbicidal effect grade (green foxtail [22]): 4 (Herbicidal rate of 70% or more and less than 90%); Q: false cleavers, herbicidal effect grade (false cleavers [23]): 0 (Herbicidal rate of 5% or less (almost no effect)); K: Italian ryegrass, herbicidal effect grade (Italian ryegrass [24]): 4 (Herbicidal rate of 70% or more and less than 90%); J: blackgrass, herbicidal effect grade (blackgrass [25]): 0 (Herbicidal rate of 5% or less (almost no effect)); I: wild oat, herbicidal effect grade (wild oat [26]): 0 (Herbicidal rate of 5% or less (almost no effect)); N: redroot pigweed, herbicidal effect grade (redroot pigweed [27]): 5 (Herbicidal rate of 90% or more (almost completely withered)) |
| CCCC(=O)Oc1c(C)nn(C)c(=O)c1-c1c(-c2ccc(OC)cc2)sc2cc(Cl)ccc12 [3-038] | 0 (Herbicidal rate of 5% or less (almost no effect)) | 1 (Herbicidal rate of 5% or more and less than 20%) | 0 (Herbicidal rate of 5% or less (almost no effect)) | 0 (Herbicidal rate of 5% or less (almost no effect)) | 2 (Herbicidal rate of 20% or more and less than 40%) | 0 (Herbicidal rate of 5% or less (almost no effect)) | 3 (Herbicidal rate of 40% or more and less than 70%) | 0 (Herbicidal rate of 5% or less (almost no effect)) | 3 (Herbicidal rate of 40% or more and less than 70%) | 0 (Herbicidal rate of 5% or less (almost no effect)) | 0 (Herbicidal rate of 5% or less (almost no effect)) | 0 (Herbicidal rate of 5% or less (almost no effect)) | 0 (Herbicidal rate of 5% or less (almost no effect)) | 1 (Herbicidal rate of 5% or more and less than 20%) | 0 (Herbicidal rate of 5% or less (almost no effect)) | 0 (Herbicidal rate of 5% or less (almost no effect)) | 3 (Herbicidal rate of 40% or more and less than 70%) | 3 (Herbicidal rate of 40% or more and less than 70%) | 3 (Herbicidal rate of 40% or more and less than 70%) | 0 (Herbicidal rate of 5% or less (almost no effect)) | herbicidal effect on rice flat sedge (E) (rice flat sedge; 320 g/ha): 3 (Herbicidal rate of 40% or more and less than 70%); herbicidal effect on Chinese sprangletop (D) (Chinese sprangletop; 320 g/ha): 1 (Herbicidal rate of 5% or more and less than 20%); herbicidal effect on barnyard grass (H) (barnyard grass [16]; 320 g/ha): 3 (Herbicidal rate of 40% or more and less than 70%); G: green foxtail, herbicidal effect grade (green foxtail [22]): 0 (Herbicidal rate of 5% or less (almost no effect)); Q: false cleavers, herbicidal effect grade (false cleavers [23]): 0 (Herbicidal rate of 5% or less (almost no effect)); K: Italian ryegrass, herbicidal effect grade (Italian ryegrass [24]): 0 (Herbicidal rate of 5% or less (almost no effect)); J: blackgrass, herbicidal effect grade (blackgrass [25]): 0 (Herbicidal rate of 5% or less (almost no effect)); I: wild oat, herbicidal effect grade (wild oat [26]): 0 (Herbicidal rate of 5% or less (almost no effect)); N: redroot pigweed, herbicidal effect grade (redroot pigweed [27]): 1 (Herbicidal rate of 5% or more and less than 20%) |
